Reference: EP4567034A1 (Korea Institute of Science and Technology, priority 2022, dated 2024)

Columns and labels:
S1P1 receptor [1] = biological target: T1, S1P1 receptor (Homo sapiens, UniProt P21453); assay: S1P1 β-arrestin recruitment assay in S1P1 overexpressing cell line (DiscoverX), luminescence; assay type: cell-based
S1P1 receptor [2] = biological target: T1, S1P1 receptor; assay: S1P1 receptor internalization (endosome formation) assay in S1P1 overexpressing cell line (DiscoverX), luminescence; assay type: cell-based
[3] = S1P1 overexpressing cell line, β-arrestin recruitment, luminescence, read-out: β-arrestin EC50
[4] = S1P1 overexpressing cell line, endosome formation by internalization, luminescence, read-out: Internalization EC50

T1 sequence (P21453 whole entry): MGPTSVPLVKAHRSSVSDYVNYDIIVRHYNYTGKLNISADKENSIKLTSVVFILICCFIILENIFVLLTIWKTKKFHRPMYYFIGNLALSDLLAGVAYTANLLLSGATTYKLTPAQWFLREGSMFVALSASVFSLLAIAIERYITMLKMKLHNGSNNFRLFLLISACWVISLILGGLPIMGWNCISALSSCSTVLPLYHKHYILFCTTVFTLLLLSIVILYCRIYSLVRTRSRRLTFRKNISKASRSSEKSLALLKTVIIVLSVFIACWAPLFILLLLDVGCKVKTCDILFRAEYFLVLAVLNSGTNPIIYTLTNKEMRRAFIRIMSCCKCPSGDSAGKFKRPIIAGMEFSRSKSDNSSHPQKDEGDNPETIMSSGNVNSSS

| SMILES | EC50 (S1P1 receptor [1]) | EC50 (S1P1 receptor [2]) | EC50 (S1P1 receptor [1]; [3]) | EC50 (S1P1 receptor [2]; [4]) |
| --- | --- | --- | --- | --- |
| COC(=O)C1CN(Cc2ccc(-c3cnc(-c4ccc(C(C)(C)C)cc4)[se]3)cc2)C1 [Compound 1, Methyl 1-(4-(2-(4-tert-butylphenyl)-1,3-selenazole-5-yl)benzyl)azetidine-3-carboxylate] | 11.1 nM | 173 nM | – | – |
| CCOC(=O)C1CN(Cc2ccc(-c3cnc(-c4ccc(C(C)(C)C)cc4)[se]3)cc2)C1 [Compound 3, Ethyl 1-(4-(2-(4-tert-butylphenyl)-1,3-selenazole-5-yl)benzyl)azetidine-3-carboxylate] | 23.6 nM | 116 nM | – | – |
| CC(C)(C)OC(=O)C1CN(Cc2ccc(-c3cnc(-c4ccc(C(C)(C)C)cc4)[se]3)cc2)C1 [Compound 4, Tert-butyl 1-(4-(2-(4-tert-butylphenyl)-1,3-selenazole-5-yl)benzyl)azetidine-3-carboxylate] | 70.1 nM | 141 nM | – | – |
| COC(=O)C1CN(Cc2ccc(-c3cnc(-c4ccc(OC(C)C)c(C#N)c4)[se]3)cc2)C1 [Compound 5] | 3.64 nM | 0.87 nM | – | – |
| CC(C)Oc1ccc(-c2ncc(-c3ccc(CN4CC(C(=O)O)C4)cc3)[se]2)cc1C#N [Compound 6] | 0.37 nM | 0.065 nM | – | – |
| CCOC(=O)C1CN(Cc2ccc(-c3cnc(-c4ccc(OC(C)C)c(C#N)c4)[se]3)cc2)C1 [Compound 7, Ethyl 1-(4-(2-(3-cyano-4-isopropoxyphenyl)-1,3-selenazole-5-yl)benzyl)azetidine-3-carboxylate] | 1.17 nM | 4.33 nM | – | – |
| CC(C)Oc1ccc(-c2ncc(-c3ccc(CN4CC(C(=O)OC(C)(C)C)C4)cc3)[se]2)cc1C#N [Compound 8, Tert-butyl 1-(4-(2-(3-cyano-4-isopropoxyphenyl)-1,3-selenazole-5-yl)benzyl)azetidine-3-carboxylate] | 29.9 nM | 33.1 nM | – | – |
| COC(=O)C1CN(Cc2ccc(-c3cnc(-c4ccc(OC(C)C)c(C(F)(F)F)c4)[se]3)cc2)C1 [Compound 9, Methyl 1-(4-(2-(4-isopropoxy-3-(trifluoromethyl)phenyl)-1,3-selenazole-5-yl)benzyl)azetidine-3-carboxylate] | 1.82 nM | 1.59 nM | – | – |
| CC(C)Oc1ccc(-c2ncc(-c3ccc(CN4CC(C(=O)O)C4)cc3)[se]2)cc1C(F)(F)F [Compound 10, 1-(4-(2-(4-isopropoxy-3-(trifluoromethyl)phenyl)-1,3-selenazole-5-yl)benzyl)azetidine-3-carboxylic acid] | 0.45 nM | 0.36 nM | – | – |
| CCOC(=O)C1CN(Cc2ccc(-c3cnc(-c4ccc(OC(C)C)c(C(F)(F)F)c4)[se]3)cc2)C1 [Compound 11, Ethyl 1-(4-(2-(4-isopropoxy-3-(trifluoromethyl)phenyl)-1,3-selenazole-5-yl)benzyl)azetidine-3-carboxylate] | 1.49 nM | 12.6 nM | – | – |
| COC(=O)C1CN(Cc2ccc(-c3cnc(-c4ccc(OC(C)C)c(Cl)c4)[se]3)cc2)C1 [Compound 12, Methyl 1-(4-(2-(3-chloro-4-isopropoxyphenyl)-1,3-selenazole-5-yl)benzyl)azetidine-3-carboxylate] | 1.41 nM | 1.48 nM | – | – |
| CCOc1ccc(-c2ncc(-c3ccc(CN4CC(C(=O)OC)C4)cc3)[se]2)cc1Cl [Compound 14, Methyl 1-(4-(2-(3-chloro-4-ethoxyphenyl)-1,3-selenazole-5-yl)benzyl)azetidine-3-carboxylate] | 1.13 nM | 4.91 nM | – | – |
| COC(=O)C1CN(Cc2ccc(-c3cnc(-c4ccc(OC)cc4)[se]3)cc2)C1 [Compound 16, Methyl 1-(4-(2-(4-methoxyphenyl)-1,3-selenazole-5-yl)benzyl)azetidine-3-carboxylate] | 48.5 nM | 139 nM | – | – |
| COc1ccc(-c2ncc(-c3ccc(CN4CC(C(=O)O)C4)cc3)[se]2)cc1 [Compound 17, 1-(4-(2-(4-methoxyphenyl)-1,3-selenazole-5-yl)benzyl)azetidine-3-carboxylic acid] | 25.9 nM | 81.3 nM | – | – |
| COC(=O)C1CN(Cc2ccc(-c3cnc(-c4ccc(OC(C)C)cc4)[se]3)cc2)C1 [Compound 18, Methyl 1-(4-(2-(4-isopropoxyphenyl)-1,3-selenazole-5-yl)benzyl)azetidine-3-carboxylate] | 3.24 nM | 9.26 nM | – | – |
| CC(C)Oc1ccc(-c2ncc(-c3ccc(CN4CC(C(=O)O)C4)cc3)[se]2)cc1 [Compound 19, 1-(4-(2-(4-isopropoxyphenyl)-1,3-selenazole-5-yl)benzyl)azetidine-3-carboxylic acid] | 1.14 nM | 0.97 nM | – | – |
| CCOC(=O)C1CN(Cc2ccc(-c3cnc(-c4ccc(OC(C)C)cc4)[se]3)cc2)C1 [Compound 20, Ethyl 1-(4-(2-(4-isopropoxyphenyl)-1,3-selenazole-5-yl)benzyl)azetidine-3-carboxylate] | 3.05 nM | 119 nM | – | – |

| SMILES | EC50 (S1P1 receptor [1]) | EC50 (S1P1 receptor [2]) | EC50 (S1P1 receptor [1]; [3]) | EC50 (S1P1 receptor [2]; [4]) |
| --- | --- | --- | --- | --- |
| COC(=O)C1CN(Cc2ccc(-c3cnc(-c4cccc(OC(C)C)c4)[se]3)cc2)C1 [Compound 21, Methyl 1-(4-(2-(3-isopropoxyphenyl)-1,3-selenazole-5-yl)benzyl)azetidine-3-carboxylate] | – | – | 503 nM | 379 nM |
| CC(C)Oc1cccc(-c2ncc(-c3ccc(CN4CC(C(=O)O)C4)cc3)[se]2)c1 [Compound 22, 1-(4-(2-(3-isopropoxyphenyl)-1,3-selenazole-5-yl)benzyl)azetidine-3-carboxylic acid] | 8.59 nM | 97.4 nM | – | – |
| COC(=O)C1CN(Cc2ccc(-c3cnc(-c4ccccc4OC(C)C)[se]3)cc2)C1 [Compound 23, Methyl 1-(4-(2-(2-isopropoxyphenyl)-1,3-selenazole-5-yl)benzyl)azetidine-3-carboxylate] | – | – | > 1000 nM | > 1000 nM |
| CC(C)Oc1ccccc1-c1ncc(-c2ccc(CN3CC(C(=O)O)C3)cc2)[se]1 [Compound 24, 1-(4-(2-(2-isopropoxyphenyl)-1,3-selenazole-5-yl)benzyl)azetidine-3-carboxylic acid] | – | – | > 1000 nM | > 1000 nM |
| CCOC(=O)C1CN(Cc2ccc(-c3cnc(-c4ccccc4OC(C)C)[se]3)cc2)C1 [Compound 25, Ethyl 1-(4-(2-(2-isopropoxyphenyl)-1,3-selenazole-5-yl)benzyl)azetidine-3-carboxylate] | – | – | 252 nM | 347 nM |
| COC(=O)C1CN(Cc2ccc(-c3cnc(-c4ccccn4)[se]3)cc2)C1 [Compound 26, Methyl 1-(4-(2-(pyridine-2-yl)-1,3-selenazole-5-yl)benzyl)azetidine-3-carboxylate] | – | – | > 1000 nM | > 1000 nM |
| O=C(O)C1CN(Cc2ccc(-c3cnc(-c4ccccn4)[se]3)cc2)C1 [Compound 27, Sodium 1-(4-(2-(pyridine-2-yl)-1,3-selenazole-5-yl)benzyl)azetidine-3-carboxylate] | – | – | > 1000 nM | > 1000 nM |
| COC(=O)C1CN(Cc2ccc(-c3cnc(-c4cccnc4)[se]3)cc2)C1 [Compound 28, Methyl 1-(4-(2-(pyridine-3-yl)-1,3-selenazole-5-yl)benzyl)azetidine-3-carboxylate] | – | – | > 1000 nM | > 1000 nM |
| O=C(O)C1CN(Cc2ccc(-c3cnc(-c4cccnc4)[se]3)cc2)C1 [Compound 29, Sodium 1-(4-(2-(pyridine-3-yl)-1,3-selenazole-5-yl)benzyl)azetidine-3-carboxylate] | – | – | 635 nM | 379 nM |
| COC(=O)C1CCN(Cc2ccc(-c3cnc(-c4ccc(C(C)(C)C)cc4)[se]3)cc2)C1 (stereo not drawn) [Compound 30, Methyl 1-(4-(2-(4-tert-butylphenyl)-1,3-selenazole-5-yl)benzyl)pyrrolidine-3-carboxylate] | 8.5 nM | 205 nM | – | – |
| COC(=O)C1CCN(Cc2ccc(-c3cnc(-c4ccc(C(C)(C)C)cc4)[se]3)cc2)CC1 [Compound 32, Methyl 1-(4-(2-(4-tert-butylphenyl)-1,3-selenazole-5-yl)benzyl)piperidine-4-carboxylate] | – | – | 580 nM | 519 nM |
| COC(=O)C1CCN(Cc2ccc(-c3cnc(-c4ccc(OC(C)C)c(Cl)c4)[se]3)cc2)C1 (stereo not drawn) [Compound 33, Methyl 1-(4-(2-(3-chloro-4-isopropoxyphenyl)-1,3-selenazole-5-yl)benzyl)pyrrolidine-3-carboxylate] | 1.79 nM | 11.9 nM | – | – |
| CCOC(=O)CNCc1ccc(-c2cnc(-c3ccc(OC(C)C)c(Cl)c3)[se]2)cc1 [Compound 35, Ethyl 2-(4-(2-(3-chloro-4-isopropoxyphenyl)-1,3-selenazole-5-yl)benzylamino)acetate] | 21 nM | 11.5 nM | – | – |
| COC(=O)CCNCc1ccc(-c2cnc(-c3ccc(OC(C)C)c(Cl)c3)[se]2)cc1 [Compound 37, Methyl 3-(4-(2-(3-chloro-4-isopropoxyphenyl)-1,3-selenazole-5-yl)benzylamino)propanoate] | 7.88 nM | 13.5 nM | – | – |
| COC(=O)C1CN(Cc2ccc(-c3ncc(-c4ccc(C(C)(C)C)cc4)[se]3)cc2)C1 [Compound 39, Methyl 1-(4-(5-(4-tert-butylphenyl)-1,3-selenazole-2-yl)benzyl)azetidine-3-carboxylate] | 39.2 nM | 160 nM | – | – |
| COC(=O)C1CN(Cc2ccc(-c3ncc(-c4ccc(OC(C)C)c(Cl)c4)[se]3)cc2)C1 [Compound 41, Methyl 1-(4-(5-(3-chloro-4-isopropoxyphenyl)-1,3-selenazole-2-yl)benzyl)azetidine-3-carboxylate] | 0.9 nM | 9.52 nM | – | – |
